According to PMC7065246 (Journal of the American Chemical Society, 2020):

Tests used:
PhqK [1] = biological target: T1, PhqK (Penicillium fellutanum, UniProt L0E4H0); assay: crystal structures; type: binding; conditions: out conformation with and without substrate
PhqK [2] = biological target: T1, PhqK; assay: Michaelis-Menten kinetics of spirocyclization; type: biochemical; conditions: FAD-dependent monooxygenase reaction; details in supplement

T1 sequence (L0E4H0 whole entry): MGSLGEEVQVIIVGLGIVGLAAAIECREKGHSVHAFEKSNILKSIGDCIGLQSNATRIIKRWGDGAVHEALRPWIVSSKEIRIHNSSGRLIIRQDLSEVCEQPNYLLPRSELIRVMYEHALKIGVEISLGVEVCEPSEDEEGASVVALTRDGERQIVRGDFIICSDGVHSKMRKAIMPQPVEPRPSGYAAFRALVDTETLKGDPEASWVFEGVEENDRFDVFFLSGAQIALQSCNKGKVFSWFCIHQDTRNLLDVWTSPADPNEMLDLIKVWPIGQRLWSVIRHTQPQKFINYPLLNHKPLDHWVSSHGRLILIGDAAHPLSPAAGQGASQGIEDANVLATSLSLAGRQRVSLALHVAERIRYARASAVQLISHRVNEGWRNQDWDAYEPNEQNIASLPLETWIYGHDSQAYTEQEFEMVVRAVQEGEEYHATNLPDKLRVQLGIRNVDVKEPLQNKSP

| Compound | crystal structures (ligand-free 1.71 Å and substrate complexes) (PhqK [1]) | Km (PhqK [2]) [µM] |
| --- | --- | --- |
| Cc1cc2nc3c(=O)[nH]c(=O)nc-3n(C[C@H](O)[C@H](O)[C@H](O)COP(=O)(O)OP(=O)(O)OC[C@H]3O[C@@H](n4cnc5c(N)ncnc54)[C@H](O)[C@@H]3O)c2cc1C [FAD] | substrate bound and unbound PhqK structures, the flavin was observed in the “out” conformation |  |
| paraherquamide L [compound 15] |  | 19.4 ± 5.2 |
